Assay [1] concerns ZIKV-induced caspase 3/7 activity in hNPCs. Description: Caspase 3/7 activity assay, ZIKV-infected hNPCs. Format: cell-based. The note with it: for IC50: read-out: Caspase 3 (IC50, uM) NPCs; for Emax: read-out: Caspase 3 (efficacy, %) NPCs. The gist of the method: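 Human NPCs, SNB-19 cells or astrocytes seeded 16 h, compound added 30 min before ZIKV, then 6 h infection at 37 °C. Caspase-Glo 3/7 luminescence after 30 min at room temperature, normalized to uninfected cells (0%) and ZIKV-infected cells (100%).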

Assay [2] deals with ZIKV-induced cell death in SNB-19 cells. Kind of assay: ATP cell viability assay for ZIKV-induced cell death, SNB-19 cells. Type of assay: cell-based, human. The gist of the method: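 The extent of cell death caused by ZIKV infection was determined from ATP levels. Cells grew in assay plates for 16 hours at 37° C. with 5% CO2, were then given ZIKV solution and kept under the same conditions for 72 hours. ATPlite reagent was applied for 15 minutes and luminescence was read on a ViewLux plate reader. Cell-free wells defined 100% killing and uninfected cell wells defined full viability.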

[3] abbreviates: Homo sapiens, ZIKV-infected hNPCs.
Where [4] appears, read: Homo sapiens, ZIKV-infected SNB-19 cells, read-out: Cell viability (IC50, uM) SNB-19.
The mark [5] stands for this setting: Homo sapiens, SNB-19, following ZIKV infection, read-out: IC50 (μM) for improving cell viability, SNB-19.
[6] abbreviates: ZIKV-infected SNB-19 cells, read-out: Cell viability (IC50, uM) SNB-19.

“And” between values parts separate entries of the source, which are not always exact repeats. Identical values can stand only once. Like-named read-outs stand apart in the source and are kept apart here.

For `Cc1ccc(O)c(-n2nc3ccccc3n2)c1` [2-(2H-Benzotriazol-2-yl)-4-methylphenol], in assay [1] (setting [3]), the IC50 stood at 4.89 µM and the Emax worked out at 77.6%. For the same compound, the “Cell viability (efficacy, %) SNB-19” value in assay [2] (ZIKV-infected SNB-19 cells) came to 0.0%.
For `Nc1nc2ccc([N+](=O)[O-])cc2s1` [2-Amino-6-nitrobenzothiazole], in assay [1] (setting [3]), the half-inhibitory concentration (IC50) was determined as 56.2 µM and the Emax is 57.1%. Further, the “Cell viability (efficacy, %) SNB-19” value in assay [2] (ZIKV-infected SNB-19 cells) was 0.0%.
Consider `CCOCCOC(=O)C=Cc1ccc(OC)cc1` [2-Ethoxylethyl-p-methoxycinnamate], for which, in assay [1] (setting [3]), the IC50 came to 18.4 µM and the Emax is 56%. Also, the “Cell viability (efficacy, %) SNB-19” value in assay [2] (ZIKV-infected SNB-19 cells) is reported as 0.0%.
On the same counts, the results for `O=C(O)c1cc([N+](=O)[O-])ccc1NCCCc1ccccc1` [5-Nitro-2-(3-phenylpropylamino)benzoic acid] are 8.69 µM, 59.8% and 0.0%.
As to `O=C1NC(=O)/C(=C/c2ccc(-c3ccc(F)cc3O)o2)S1` [AS-252424], in assay [1] (ZIKV-infected hNPCs), the “Caspase 3 (efficacy, %) NPCs” value worked out at 52.3% and the IC50 turned out to be 1.64 µM. Further, the “Cell viability (efficacy, %) SNB-19” value in assay [2] (ZIKV-infected SNB-19 cells) is recorded as 0.0%.
Take `O=C1c2ccccc2C(=O)c2c1ccc(O)c2O` [Alizarin]: in assay [1] (setting [3]), the IC50 came to 21.8 µM and the Emax stood at 58.5%. Besides, the “Cell viability (efficacy, %) SNB-19” value in assay [2] (ZIKV-infected SNB-19 cells) is reported as 0.0%.
Turning to `COc1ccc(-c2cc(=S)ss2)cc1` [Anethole trithione], in assay [1] (setting [3]), the IC50 amounted to 13 µM and the Emax stood at 70.3%. Also, the “Cell viability (efficacy, %) SNB-19” value in assay [2] (ZIKV-infected SNB-19 cells) is on record as 0.0%.
`N#CC1(c2ccc(NC(=O)c3cccnc3NCc3ccncc3)cc2)CCCC1` [Apatinib]: the Emax in assay [1] (setting [3]) is 0%. In addition, the “Cell viability (efficacy, %) SNB-19” value in assay [2] (ZIKV-infected SNB-19 cells) worked out at 0.0%.
As to `O=C(Nc1ccc(C(=O)O)c(O)c1)c1ccccc1` [Benzoylpas], in assay [1] (setting [3]), the IC50 is 4.89 µM and the Emax was 85.4%. For the same compound, the “Cell viability (efficacy, %) SNB-19” value in assay [2] (ZIKV-infected SNB-19 cells) is listed as 0.0%.
On the same counts, the results for `O=C(OCc1ccccc1)c1ccc(O)cc1` [Benzylparaben] are 15.5 µM, 56% and 0.0%.
Take `O=C1NC(=O)C(=Cc2ccc(-c3ccc(F)cc3)o2)S1` [CAY10505]: in assay [1] (ZIKV-infected hNPCs), the “Caspase 3 (efficacy, %) NPCs” value came to 83.5% and the IC50 is 10.9 µM. Besides, in assay [2] (ZIKV-infected SNB-19 cells), the “Cell viability (efficacy, %) SNB-19” value was 0.0%.
Take `CN(C)CCCSc1ccccc1NC(=O)/C=C/c1ccccc1` [Cinanserin]: the IC50 in assay [1] (setting [3]) was 17.3 µM; in assay [2] (setting [4]), 19.5 µM. The Emax in assay [1] (setting [3]) worked out at 80.4%. Besides, the “Cell viability (efficacy, %) SNB-19” value in assay [2] (ZIKV-infected SNB-19 cells) came to 56.9%.
Take `CC(=O)Oc1cccc2c1C(=O)c1c(OC(C)=O)cc(C(=O)O)cc1C2=O` [Diacerein]: in assay [1] (setting [3]), the IC50 was 15.5 µM and the Emax was 56.5%. Also, the “Cell viability (efficacy, %) SNB-19” value in assay [2] (ZIKV-infected SNB-19 cells) was 0.0%.
Turning to `O=C(Oc1ccccc1)c1cccc(C(=O)Oc2ccccc2)c1` [Diphenyl isophthalate], in assay [1] (setting [3]), the concentration for half-maximal inhibition (IC50) was found to be 4.47 µM and the Emax was 89.4%. For the same compound, in assay [2] (ZIKV-infected SNB-19 cells), the “Cell viability (efficacy, %) SNB-19” value amounted to 0.0%.
For `Cc1cc(O)c2c(c1)C(=O)c1cc(O)cc(O)c1C2=O` [Emodin], in that order: 2.59 µM, 82.1% and 0.0%.
For the compound `C[C@H](NC(=O)C(=O)Nc1ccccc1C(C)(C)C)C(=O)N[C@@H](CC(=O)O)C(=O)COc1c(F)c(F)cc(F)c1F` [Emricasan], the IC50 is 0.37 µM in assay [1] (setting [3]); 0.87 µM in assay [2] (setting [5]); 0.13 to 0.9 µM in assay [2] (Homo sapiens, SNB-19 cells, three ZIKV strains MR766, FSS13025, PRVABC59, read-out: IC50 in the cell viability assay); 0.87 µM in assay [2] (setting [4]). In assay [1] (setting [3]), the Emax was 85.3%. The “Cell viability (efficacy, %) SNB-19” value in assay [2] (ZIKV-infected SNB-19 cells) came out at 194%.
Turning to `O=C(O)c1ccccc1NCCc1ccccc1` [Enfenamic acid], in assay [1] (setting [3]), the IC50 came out at 21.8 µM and the Emax is 47.1%. The “Cell viability (efficacy, %) SNB-19” value in assay [2] (ZIKV-infected SNB-19 cells) amounted to 0.0%.
`O=S(=O)(O)c1ccc2[nH]c(-c3ccccc3)nc2c1` [Ensulizole]: in assay [1] (Homo sapiens), the IC50 amounted to 1.38 µM and the Emax turned out to be 80.6%. Also, the “Cell viability (efficacy, %) SNB-19” value in assay [2] (ZIKV-infected SNB-19 cells) stood at 0.0%.
Consider `c1ccc(CCNc2nc(-c3ccccc3)cs2)cc1` [Fanetizole], for which, in assay [1] (setting [3]), the IC50 was 14.6 µM and the Emax stood at 81.8%. In assay [2] (ZIKV-infected SNB-19 cells), the “Cell viability (efficacy, %) SNB-19” value came to 0.0%.
For `O=C(O)CCC(=O)c1ccc(-c2ccccc2)cc1` [Fenbufen], in that order: 19.5 µM, 72.5% and 0.0%.
Regarding `CN1CC(=O)NC1=NC(=O)Nc1cccc(Cl)c1` [Fenobam], in assay [1] (ZIKV-infected hNPCs), the “Caspase 3 (efficacy, %) NPCs” value worked out at 108% and the IC50 came to 5.48 µM. In addition, the “Cell viability (efficacy, %) SNB-19” value in assay [2] (ZIKV-infected SNB-19 cells) was 60.5%. Also, in assay [2] (setting [6]), the IC50 was found to be 1.73 µM.
`O=C(O)c1ccccc1Nc1cccc(C(F)(F)F)c1` [Flufenamic acid]: in assay [1] (setting [3]), the IC50 is 17.3 µM and the Emax was found to be 68.1%. In addition, in assay [2] (ZIKV-infected SNB-19 cells), the “Cell viability (efficacy, %) SNB-19” value is 0.0%.
`C/C1=C2/[N-][C@H]([C@H](CC(N)=O)[C@@]2(C)CCC(=O)NC[C@@H](C)OP(=O)([O-])O[C@H]2[C@@H](O)[C@@H](n3cnc4cc(C)c(C)cc43)O[C@@H]2CO)[C@]2(C)N=C(/C(C)=C3N=C(/C=C4N=C1[C@@H](CCC(N)=O)C\4(C)C)[C@@H](CCC(N)=O)[C@]\3(C)CC(N)=O)[C@@H](CCC(N)=O)[C@]2(C)CC(N)=O.[Co+3].[OH-]` [Hydroxocobalamin]: in assay [1] (ZIKV-infected hNPCs), the “Caspase 3 (efficacy, %) NPCs” value was 67.4% and the IC50 was determined as 0.87 µM. Also, the “Cell viability (efficacy, %) SNB-19” value in assay [2] (ZIKV-infected SNB-19 cells) was determined as 0.0%.
Regarding `CCC(C(=O)O)c1ccc(N2Cc3ccccc3C2=O)cc1` (stereo not shown) [Indobufen], in assay [1] (setting [3]), the IC50 was found to be 6.15 µM and the Emax was found to be 81.3%. Besides, the “Cell viability (efficacy, %) SNB-19” value in assay [2] (ZIKV-infected SNB-19 cells) is on record as 0.0%.
For `O=C(c1ccccc1)c1ccc2n1CCC2C(=O)O` (stereo not shown) [Ketorolac tromethamine], in that order: 10.3 µM, 75% and 0.0%.
For `Cc1cccc(C#Cc2ccccc2)n1` [MPEP, 2-Methyl-6-(phenylethynyl)pyridine], in that order: 4.11 µM, 96.1% and 0.0%.
Regarding `O=C(Nc1ccc([N+](=O)[O-])cc1Cl)c1cc(Cl)ccc1O` [Niclosamide], the IC50 was determined as 1.84 µM in assay [1] (setting [3]), 1.95 µM in assay [2] (setting [5]) and 1.95 µM in assay [2] (setting [4]). In assay [1] (setting [3]), the Emax is 87.5%. In assay [2] (ZIKV-infected SNB-19 cells), the “Cell viability (efficacy, %) SNB-19” value is listed as 97.3%.
On to `CC(=O)Nc1ccc([C@H](C)C(=O)Nc2ncc(C(C)C)s2)cc1` [PHA-690509], for which the “Caspase 3 (efficacy, %) NPCs” value in assay [1] (ZIKV-infected hNPCs) was found to be 73.0%. In addition, the IC50 in assay [1] (ZIKV-infected hNPCs) was found to be 19.5 µM; in assay [2] (setting [6]) it was 10.9 µM; in assay [2] (following ZIKV infection, read-out: IC50 (μM) for improving cell viability, SNB-19) it was 10.1 µM. Further, the “Cell viability (efficacy, %) SNB-19” value in assay [2] (ZIKV-infected SNB-19 cells) came to 165%.
Regarding `CN1CCN(c2cc3c(nn2)Oc2ccccc2N3C)CC1` [Pipofezine], in assay [1] (setting [3]), the IC50 worked out at 12 µM and the Emax was 47.7%. Besides, in assay [2] (ZIKV-infected SNB-19 cells), the “Cell viability (efficacy, %) SNB-19” value came to 0.0%.
Regarding `Cc1cccc(/C=C/c2ccccc2)n1` [SIB 1893], in assay [1] (ZIKV-infected hNPCs), the “Caspase 3 (efficacy, %) NPCs” value was 95.2% and the IC50 was determined as 8.69 µM. Moreover, the “Cell viability (efficacy, %) SNB-19” value in assay [2] (ZIKV-infected SNB-19 cells) is recorded as 0.0%.
Take `CC(C(=O)O)c1ccc(C(=O)c2cccs2)cc1` (stereo not shown) [Suprofen]: in assay [1] (setting [3]), the IC50 came to 15.5 µM and the Emax is 59.1%. In assay [2] (ZIKV-infected SNB-19 cells), the “Cell viability (efficacy, %) SNB-19” value worked out at 0.0%.
On the same counts, the results for `c1ccc2[nH]c(-c3cscn3)nc2c1` [Thiabendazole] are 9.75 µM, 83.4% and 0.0%.
On the same counts, the results for `CC(C(=O)O)c1ccc(C(=O)c2ccccc2)s1` (stereo not shown) [Tiaprofenic acid] are 8.69 µM, 86.7% and 0.0%.
For `COc1cccc(-c2ccc(NC(=O)C3=C(C(=O)O)CCC3)c(F)c2)c1` [Vidofludimus], in that order: 2.45 µM, 87.8% and 0.0%.
With Flurbiprofen axetil, the “Caspase 3 (efficacy, %) NPCs” value in assay [1] (ZIKV-infected hNPCs) is 0.0%. In assay [2] (ZIKV-infected SNB-19 cells), the “Cell viability (efficacy, %) SNB-19” value amounted to 0.0%.
In the case of Vitamin B12, in assay [1] (ZIKV-infected hNPCs), the “Caspase 3 (efficacy, %) NPCs” value was 94.7% and 59.1%. The IC50 in assay [1] (ZIKV-infected hNPCs) is 6.9 µM and 11.3 µM; in assay [2] (setting [6]), 0.12 µM.

Values taken from US10940188B2, “Compounds and methods for treatment and prevention of Flavivirus infection” (priority 2016, dated 2021).
